Patent publication US5429766A, “Detergent composition containing alkaline pullylanase enzyme” (Kao Corporation, priority 1990, dated 1995)

What was measured:
Assay type in all cases: biochemical
[1] = test system: alkaline pullulanase B (having α-amylase activity) from Bacillus sp. KSM-AP 1378 (FERM BP-3048), pullulanase activity; assay: Effects of chelating agents on pullulanase activity of alkaline pullulanase B; conditions: for Effect of chelating agent on pullulanase activity: chelating agent 10 mM; for Residual activity (%), Pullulanase activity: compound 10 mM, no addition = 100
Experimental: (§1) 0.1 ml of enzyme solution was added to 0.9 ml of a substrate solution consisting of a buffer solution and pullulan (final concentration in the reaction system was 0.25%), and the mixture was reacted at 40° C. for 30 minutes. After the reaction, reducing sugar was quantitatively determined by a method of the 3,5-dinitrosalicylic acid (DNS).
(§2) Specifically, 1.0 ml of DNS reagent was added to 1.0 ml of reaction mixture, and the mixture was heated at 100° C. for 5 minutes to develop color. After cooling, the mixture was diluted by adding 4.0 ml of deionized water. This solution was subjected to colorimetric quantitative analysis at a wave length of 535 nm. One unit (1U) of enzyme activity was defined as the amount of enzyme which released 1 μmol of reducing sugar (as glucose) per minute.
Same procedures were followed as mentioned in the section of alkaline pullulanase A.
The α-amylase activity which had been adversely affected by chelating agents can be restored by the addition of Ca^2+ ions as shown in Table 3.

[2] = test system: alkaline pullulanase A from Bacillus sp. KSM-AP 1876 (FERM BP-3049); assay: Effects of chelating agents on pullulanase activity of alkaline pullulanase A; conditions: substrate pullulan
Experimental: as §1, §2

[3] = test system: alkaline pullulanase B (having α-amylase activity) from Bacillus sp. KSM-AP 1378 (FERM BP-3048), α-amylase activity; assay: Effects of chelating agents on α-amylase activity of alkaline pullulanase B
Experimental: as §2, with “0.1 ml of enzyme solution was added to 0.9 ml of a substrate solution consisting of a buffer solution and soluble starch (final concentration in the reaction system was 0.25%), and the mixture was reacted at 50° C. for 15 minutes. After the reaction, reducing sugar was quantitatively determined by means of a DNS method. Specifically,” for “Specifically,”, “at” for “at a”

Compound	Effect of chelating agent on pullulanase activity [1]	Residual activity (%), Pullulanase activity [1]	Effect of chelating agent on pullulanase activity ([2]; chelating agent 10 mM)	Effect of chelating agent on α-amylase activity ([3]; chelating agent 10 mM, restored by addition of Ca2+ ions)	Residual activity (%), α-Amylase activity, when Ca2+ ions were added again ([3]; compound 10 mM, then Ca2+ ions added again (values in parentheses))	Residual activity (%), α-Amylase activity ([3]; compound 10 mM, no addition = 100)	Effect of chelating agent on pullulanase activity ([2]; chelating agent 0.05% by weight)
O=C(O)CN(CCN(CC(=O)O)CC(=O)O)CC(=O)O [EDTA]	almost no adverse effect	77%	almost no adverse effects				
O=C(O)CN(CCOCCOCCN(CC(=O)O)CC(=O)O)CC(=O)O [EGTA]	almost no adverse effect	65%	almost no adverse effects	adversely affected significantly	91%	18%	
O=C(O)CC(O)(CC(=O)O)C(=O)O [citric acid]							almost no adverse effects
